# Results: US10030047B2 (Hoffmann-La Roche Inc., priority 2015, dated 2018)
# Test system: A. baumannii strain ATCC19606
# Assay: Minimum inhibitory concentration (MIC) determination, microbroth dilution (CLSI)
# Assay type: cell-based
# Conditions: Acinetobacter baumannii; A. baumannii ATCC19606; CAMHB; read after 20 hours; >=80% growth inhibition; read-out: ATCC19606 MIC
# Procedure, shortened: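 After 20 h at 35±2 °C, MIC taken visually and by OD 600 nm as the lowest concentration giving ≥80% growth inhibition. Bacteria (~5×10^5 CFU/ml) were tested per CLSI microbroth dilution against twofold serial compound dilutions in cation-adjusted Mueller Hinton broth.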
row,SMILES,MIC
1,"CN1C(=O)[C@H](CCCCN)NC(=O)[C@H](CCCN)NCc2cccnc2Sc2c(Cl)ccc(Br)c2CNC(=O)[C@@H]1Cc1c[nH]c2ccccc12 [Example 90, (11S,14S,17S)-14-(4-Amino-butyl)-11-(3-amino-propyl)-22-bromo-25-chloro-17-(1H-indol-3-ylmethyl)-16-methyl-2-thia-4,10,13,16,19-pentaaza-tricyclo[19.4.0.0*3,8*]pentacosa-1(25),3,5,7,21,23-hexaene-12,15,18-trione]",0.25 µg/mL
2,"CN1C(=O)[C@H](CCCCN)NC(=O)[C@H](CCCN)NCc2nccnc2Sc2c(Cl)ccc(C(F)(F)F)c2CNC(=O)[C@@H]1Cc1c[nH]c2ccccc12 [Example 98, (11S,14S,17S)-14-(4-Amino-butyl)-11-(3-amino-propyl)-25-chloro-17-(1H-indol-3-ylmethyl)-16-methyl-22-trifluoromethyl-2-thia-4,7,10,13,16,19-hexaaza-tricyclo[19.4.0.0*3,8*]pentacosa-1(21),3,5,7,22,24-hexaene-12,15,18-trione]",0.12 µg/mL
3,"CN1C(=O)[C@H](CCCCN)NC(=O)[C@H](Cc2ccc3ccccc3c2)NCc2cccnc2Sc2c(Cl)cc(Cl)cc2CNC(=O)[C@@H]1Cc1c[nH]c2ccccc12 [Example 108, (11S,14S,17S)-14-(4-Amino-butyl)-23,25-dichloro-17-(1H-indol-3-ylmethyl)-16-methyl-11-naphthalen-2-ylmethyl-2-thia-4,10,13,16,19-pentaaza-tricyclo[19.4.0.0*3,8*]pentacosa-1(25),3,5,7,21,23-hexaene-12,15,18-trione]",16 µg/mL
4,"CN1C(=O)[C@H](CCCCN)NC(=O)[C@H](CCCN)NCc2cccnc2Sc2c(Cl)cc(-c3cc(F)nc(F)c3)cc2CNC(=O)[C@@H]1Cc1c[nH]c2ccccc12 [Example 209, (11S,14S,17S)-14-(4-Amino-butyl)-11-(3-amino-propyl)-25-chloro-23-(2,6-difluoro-pyridin-4-yl)-17-(1H-indol-3-ylmethyl)-16-methyl-2-thia-4,10,13,16,19-pentaaza-tricyclo[19.4.0.0*3,8*]pentacosa-1(21),3(8),4,6,22,24-hexaene-12,15,18-trione]",0.25 µg/mL
5,"CN1C(=O)[C@H](CCCCN)NC(=O)[C@H](CCCN)NCc2cccnc2Sc2c(Cl)ccc(-c3ccc(S(N)(=O)=O)cc3)c2CNC(=O)[C@@H]1Cc1c[nH]c2ccccc12 [Example 224, 4-[(11S,14S,17S)-14-(4-Amino-butyl)-11-(3-amino-propyl)-25-chloro-17-(1H-indol-3-ylmethyl)-16-methyl-12,15,18-trioxo-2-thia-4,10,13,16,19-pentaaza-tricyclo[19.4.0.0*3,8*]pentacosa-1(21),3,5,7,22,24-hexaen-22-yl]-benzenesulfonamide]",0.12 µg/mL
6,"CN1C(=O)[C@H](CCCCN)NC(=O)[C@H](CCCN)NCc2cccnc2Sc2c(Cl)cc(C(F)(F)F)cc2CNC(=O)[C@@H]1Cc1c[nH]c2ccccc12 [Example 62, (11S,14S,17S)-14-(4-Amino-butyl)-11-(3-amino-propyl)-25-chloro-17-(1H-indol-3-ylmethyl)-16-methyl-23-trifluoromethyl-2-thia-4,10,13,16,19-pentaaza-tricyclo[19.4.0.0*3,8*]pentacosa-1(25),3,5,7,21,23-hexaene-12,15,18-trione]",0.12 µg/mL
7,"CCN1C(=O)[C@H](CCCCN)NC(=O)[C@H](CCCN)NCc2ccccc2Sc2ccc(Cl)cc2CNC(=O)[C@@H]1Cc1c[nH]c2ccccc12 [Example 43, (12S,15S,18S)-15-(4-Amino-butyl)-18-(3-amino-propyl)-6-chloro-13-ethyl-12-(1H-indol-3-ylmethyl)-2-thia-10,13,16,19-tetraaza-tricyclo[19.4.0.0*3,8*]pentacosa-1(21),3,5,7,22,24-hexaene-11,14,17-trione]",1 µg/mL
8,"CN1C(=O)[C@H](CCCCN)NC(=O)[C@H](CCCN)NCc2cccnc2Sc2c(Cl)cc(-c3ccncc3)cc2CNC(=O)[C@@H]1Cc1c[nH]c2ccccc12 [Example 100, (11S,14S,17S)-14-(4-Amino-butyl)-11-(3-amino-propyl)-25-chloro-17-(1H-indol-3-ylmethyl)-16-methyl-23-pyridin-4-yl-2-thia-4,10,13,16,19-pentaaza-tricyclo[19.4.0.0*3,8*]pentacosa-1(25),3,5,7,21,23-hexaene-12,15,18-trione]",2 µg/mL
9,"CNC(=O)CC[C@@H]1NCc2cccnc2Sc2c(Cl)cc(Cl)cc2CNC(=O)[C@H](Cc2c[nH]c3ccccc23)N(C)C(=O)[C@H](CCCCN)NC1=O [Example 210, 3-[(11S,14S,17S)-14-(4-Amino-butyl)-23,25-dichloro-17-(1H-indol-3-ylmethyl)-16-methyl-12,15,18-trioxo-2-thia-4,10,13,16,19-pentaaza-tricyclo[19.4.0.0*3,8*]pentacosa-1(25),3(8),4,6,21,23-hexaen-11-yl]-N-methyl-propionamide]",16 µg/mL
10,"CN1C(=O)[C@H](CCCCN)NC(=O)[C@H](CCC(N)=O)NCc2cccnc2Sc2c(Cl)ccc(Cl)c2CNC(=O)[C@@H]1Cc1c[nH]c2ccccc12 [Example 121, 3-[(11S,14S,17S)-14-(4-Amino-butyl)-22,25-dichloro-17-(1H-indol-3-ylmethyl)-16-methyl-12,15,18-trioxo-2-thia-4,10,13,16,19-pentaaza-tricyclo[19.4.0.0*3,8*]pentacosa-1(25),3,5,7,21,23-hexaen-11-yl]-propionamide]",2 µg/mL
11,"Cc1cc(-c2cc(Cl)c3c(c2)CNC(=O)[C@H](Cc2c(C)[nH]c4ccccc24)N(C)C(=O)[C@H](CCCCN)NC(=O)[C@H](CCCN)NCc2cccnc2S3)ccn1 [Example 170, (11S,14S,17S)-14-(4-Amino-butyl)-11-(3-amino-propyl)-25-chloro-16-methyl-17-(2-methyl-1H-indol-3-ylmethyl)-23-(2-methyl-pyridin-4-yl)-2-thia-4,10,13,16,19-pentaaza-tricyclo[19.4.0.0*3,8*]pentacosa-1(25),3(8),4,6,21,23-hexaene-12,15,18-trione]",0.5 µg/mL
12,CN1C(=O)[C@H](CCCCN)NC(=O)[C@H](CCCN)NCc2ccccc2Sc2ncc(Cl)cc2CNC(=O)[C@@H]1Cc1c[nH]c2ccccc12 [Example 179],32 µg/mL
13,"CN1C(=O)[C@H](CCCCN)NC(=O)[C@H](CCCN)NCc2cccnc2Sc2c(Cl)cc(-c3ccnc(N4CCOCC4)c3)cc2CNC(=O)[C@@H]1Cc1c[nH]c2ccccc12 [Example 162, (11S,14S,17S)-14-(4-Amino-butyl)-11-(3-amino-propyl)-25-chloro-17-(1H-indol-3-ylmethyl)-16-methyl-23-(2-morpholin-4-yl-pyridin-4-yl)-2-thia-4,10,13,16,19-pentaaza-tricyclo[19.4.0.0*3,8*]pentacosa-1(25),3(8),4,6,21,23-hexaene-12,15,18-trione]",0.5 µg/mL
14,"CN1C(=O)[C@H](CCCCN)NC(=O)[C@H](CCCN)NCc2cccnc2Sc2cccc(C(F)(F)F)c2CNC(=O)[C@@H]1Cc1c[nH]c2ccccc12 [Example 53, (11S,14S,17S)-14-(4-Amino-butyl)-11-(3-amino-propyl)-17-(1H-indol-3-ylmethyl)-16-methyl-22-trifluoromethyl-2-thia-4,10,13,16,19-pentaaza-tricyclo[19.4.0.0*3,8*]pentacosa-1(25),3,5,7,21,23-hexaene-12,15,18-trione]",1 µg/mL
15,"CN1C(=O)[C@H](CCCCN)NC(=O)[C@H](CCCN)NCc2cccnc2Sc2c(Cl)cc(-c3cc[nH]c3)cc2CNC(=O)[C@@H]1Cc1c[nH]c2ccccc12 [Example 232, (11S,14S,17S)-14-(4-Amino-butyl)-11-(3-amino-propyl)-25-chloro-17-(1H-indol-3-ylmethyl)-16-methyl-23-(1H-pyrrol-3-yl)-2-thia-4,10,13,16,19-pentaaza-tricyclo[19.4.0.0*3,8*]pentacosa-1(25),3(8),4,6,21,23-hexaene-12,15,18-trione]",1 µg/mL
16,"COc1cc(-c2cc(Cl)c3c(c2)CNC(=O)[C@H](Cc2c[nH]c4ccccc24)N(C)C(=O)[C@H](CCCCN)NC(=O)[C@H](CCC(N)=O)NCc2cccnc2S3)ccn1 [Example 134, 3-[(11S,14S,17S)-14-(4-Amino-butyl)-25-chloro-17-(1H-indol-3-ylmethyl)-23-(2-methoxy-pyridin-4-yl)-16-methyl-12,15,18-trioxo-2-thia-4,10,13,16,19-pentaaza-tricyclo[19.4.0.0*3,8*]pentacosa-1 (25),3(8),4,6,21,23 exaen-11-yl]-propionamde]",2 µg/mL
17,"CN1C(=O)[C@H](CCCN)NC(=O)[C@H](CCC(N)=O)NCc2cccnc2Sc2c(Cl)cc(Cl)cc2CNC(=O)[C@@H]1Cc1c[nH]c2ccccc12 [Example 160, 3-[(11S,14S,17S)-14-(3-Amino-propyl)-23,25-dichloro-17-(1H-indol-3-ylmethyl)-16-methyl-12,15,18-trioxo-2-thia-4,10,13,16,19-pentaaza-tricyclo[19.4.0.0*3,8*]pentacosa-1(25),3(8),4,6,21,23-hexaen-11-yl]-propionamide]",4 µg/mL
18,"CN1C(=O)[C@H](CCCCN)NC(=O)[C@H](CCCN)NCc2ccccc2Sc2ccc(F)cc2CNC(=O)[C@@H]1Cc1c[nH]c2ccccc12 [Example 47, (12S,15S,18S)-15-(4-Amino-butyl)-18-(3-amino-propyl)-6-fluoro-12-(1H-indol-3-ylmethyl)-13-methyl-2-thia-10,13,16,19-tetraaza-tricyclo[19.4.0.0*3,8*]pentacosa-1(25),3,5,7,21,23-hexaene-11,14,17-trione]",4 µg/mL
19,"Cc1cc(Cl)c2c(c1)CNC(=O)[C@H](Cc1c[nH]c3ccccc13)N(C)C(=O)[C@H](CCCCN)NC(=O)[C@H](CCCN)NCc1ccccc1S2 [Example 41, (12S,15S,18S)-15-(4-Amino-butyl)-18-(3-amino-propyl)-4-chloro-12-(1H-indol-3-ylmethyl)-6,13-dimethyl-2-thia-10,13,16,19-tetraaza-tricyclo[19.4.0.0*3,8*]pentacosa-1(25),3,5,7,21,23-hexaene-11,14,17-trione]",0.5 µg/mL
